Test results published in patent US6008222A (Bristol-Myers Squibb Company, priority 1997, dated 1999).
Entries after “also recorded” stand apart in the source; their conditions may differ.

Tests used:
anxiolytic activity = settings: cited from earlier work
rat = settings: systemic administration of 1-PP; cited from earlier work
[1] = human, in vivo; cited from earlier work
diazepam-naive subjects = settings: previous studies; cited from earlier work
[2] = system: diazepam-withdrawn animals; settings: cited from earlier work
[3] = in vivo, cited from earlier work
[4] = human, in vivo
[5] = system: anxiety disorders and depression; settings: U.S. Pat. No. 3,717,634; cited from earlier work
clinical = settings: human, in vivo, po
[6] = system: patients undergoing diazepam-withdrawal; settings: human, in vivo; cited from earlier work
antidepressant effect = settings: co-administered with an antidepressant drug regimen such as fluoxetine; cited from earlier work
[7] = six subject pharmacokinetic study: buspirone and 1-PP blood levels following seven days of drug administration
[8] = J. Clin. Psychiatry, 57:7, July 1996; cited from earlier work
cytochrome P4503A3/4 = settings: J. Clin. Psychiatry, 57:7, July 1996; cited from earlier work
cytochrome P4503A4 = settings: cited from earlier work

Structure (SMILES): c1cnc(N2CCNCC2)nc1 [1-PP, 1-(2-pyrimidinyl)-piperazine]
- anxiolytic activity (anxiolytic activity; certain tests / earlier animal testing): (weak) antianxiety activity; also recorded: weak anxiolytic activity
- antagonism of the anxiolytic and/or antidepressant action of buspirone (anxiolytic activity; other tests): antagonizes the desired anxiolytic and/or antidepressant action of buspirone
- antagonism of intracerebral buspirone activity (rat): could be blocked
- association of high 1-PP levels with undesired or adverse events [1]: associated with the occurrence of undesired or adverse events
- effect on social interaction (diazepam-naive subjects): not shown any effect
- effect in social interaction paradigms [2]: anxiogenic effect
- plasma levels of 1-PP [3]: much higher plasma levels
- intra- and inter-patient variations in blood levels [4]: reduced

Structure (SMILES): O=C1CC2(CCCC2)CC(=O)N1CCCCN1CCN(c2ncccn2)CC1 [Buspirone, 8-[4-[4-(2-pyrimidinyl)1-piperazinyl]butyl]-8-azaspiro(4,5)-decane,7,9-dione]
- effectiveness for the treatment of anxiety disorders and depression [5]: effective
- AUC(0-t) at […] (clinical): 29.4 ± 9.9 ng·h/mL
- Cmax at […] (clinical): 8 ± 3.3 ng/mL
- Tmax at […] (clinical): 1 h
- half-life at […] (clinical; T1/2 of buspirone): 2.6 ± 1.8 h
- treatment of patients undergoing diazepam-withdrawal [6]: failed to adequately treat
- augmentation of an antidepressant effect (antidepressant effect): effective
- disappearance of buspirone ([7]; concurrent administration of nefazodone): delayed
- absorption ([3]; po): rapidly absorbed
- intra- and inter-patient variations in blood levels [4]: reduced

Structure (SMILES): CCc1nn(CCCN2CCN(c3cccc(Cl)c3)CC2)c(=O)n1CCOc1ccccc1 [Nefazodone]
- effect on concentration and toxicity of alprazolam and triazolam [8]: increasing the concentration and toxicity of alprazolam and triazolam
- inhibition of cytochrome P4503A3/4 (cytochrome P4503A3/4): inhibition
- inhibition of cytochrome P4503A4 (cytochrome P4503A4): an inhibitor
- inhibition of buspirone metabolism ([7]; in the presence of nefazodone, preliminary study data): marked inhibition of buspirone metabolism
